Each block holds one compound with its values, some of them ahead of it.
Assays:
[1] = test system: rats; conditions: topical addition; cited from earlier work
[2] = test system: rabbits; conditions: topical addition; cited from earlier work
[3] = test system: ExLac rats; assay: Tear volume in rat model of dry eye disease (lacrimal gland excision, ExLac Model); type: in vivo, Sprague Dawley rats; conditions: 5 μl test article solution per eye, tear volume by ZoneQuick thread over 6 h
Experimental: The effects of compounds on tear volume was assessed in a rat model of dry eye disease in which Sprague Dawley rats undergo surgical lacrimal gland excision (ExLac Model) to reduce normal tear volume. The lacrimal excision reduces normal tear volume by ˜50% (Table 2).
Both the ipsilateral and contralateral eyes were dosed with 5 μl of test article solution. Tear production was measured using the ZoneQuick cotton thread with impregnated phenol red dye. The folded end of the thread was held in the lateral-ventral conjunctival cul-de-sac for 10 seconds. The length of tear wicking onto the thread was determined by measuring the length of the thread that changes color from yellow to red. Use of a stereomicroscope was assist in the accurate measurement (recorded in millimeters) of the wicking/color change. Tear volume was assessed pre-dose, and 15, 30, 60, 120, and 360 minute post-dose. For reference, the effect of a saline vehicle is shown for ExLac rats and normal (no lacrimal excision surgery) rats.

[4] = Confocal microscopy assay of amiloride congener transport; type: in vitro ADME; conditions: applied to apical (epithelial) surface of mouse corneas, one hour at 37 C
Source text: Serial x-y images were obtained one hour post-drug addition by confocal microsopy.

[5] = In vitro drug metabolism: hepatocyte stability, dog; type: in vitro ADME; conditions: dog hepatocyte suspension, 10 μM, 37° C., up to six hours
Experimental: (§1) The metabolic stability of 9 and 15 was assessed in plasma (rat, rabbit, dog and human) and hepatocytes (rat and dog). Compounds were added either directly to plasma or to hepatocyte suspensions at a final concentration of 2.5 or 10 μM, respectively, and incubated at 37° C. for up to six hours. Aliquots were removed at various time points and quenched. The amount of parent compound was quantified via UPLC-fluorescence analysis. The amount of parent compound remaining was calculated based on the total peak area at the time of sampling divided by the total peak area at initiation.

[6] = In vitro drug metabolism: hepatocyte stability, rat; type: in vitro ADME; conditions: rat hepatocyte suspension, 10 μM, 37° C., up to six hours
Experimental: as §1

[7] = molecular target: Muc5B (Homo sapiens, UniProt Q9HC84); conditions: in vitro; cited from earlier work
[8] = In vitro drug metabolism: summary in words for plasma and hepatocytes among the species evaluated; type: in vitro ADME; conditions: plasma (rat, rabbit, dog, human) and hepatocytes (rat, dog)
Experimental: as §1

[9] = In vitro drug metabolism: plasma stability, rat; type: in vitro ADME; conditions: 2.5 μM, 37° C., up to six hours
Experimental: as §1

[10] = In vitro drug metabolism: plasma stability, rabbit; type: in vitro ADME; conditions: 2.5 μM, 37° C., up to six hours
Experimental: as §1

[11] = In vitro drug metabolism: plasma stability, dog; type: in vitro ADME; conditions: 2.5 μM, 37° C., up to six hours
Experimental: as §1

[12] = In vitro drug metabolism: plasma stability, human; type: in vitro ADME; conditions: 2.5 μM, 37° C., up to six hours
Experimental: as §1

Penetration of the cornea (confocal x-z image, FIG. 16) [4]: can fully penetrate the cornea
Compound: N=C(N)NC(=O)c1nc(Cl)c(N)nc1N [Amiloride, amiloride]
Change of tear volume [1]: approximate doubling of tear volume
Time tear volume remained elevated post-administration [1]: > 60 min
Change of tear volume [2]: approximate doubling of tear volume
Time tear volume remained elevated post-administration [2]: > 60 min
6 h Ocular Hydration (AUC0-6) [3]: 30.4

Hepatocyte Stability (amount of parent compound remaining) [5]: 75%
Hepatocyte Stability (amount of parent compound remaining) [6]: 83%
Compound: N=C(NCCCCc1ccc(OCCN(CCCN)CCCN)cc1)NC(=O)c1nc(Cl)c(N)nc1N [Compound 45, 3,5-diamino-N—(N-(4-(4-(2-(bis(3-aminopropyl)amino)ethoxy)phenyl)butyl)carbamimidoyl)-6-chloropyrazine-2-carboxamide]
6 h Ocular Hydration (AUC0-6) [3]: 42.3

Compound: N=C(N)NCCCC[C@@H](N)C(=O)NCCCN(CCCNC(=O)[C@H](N)CCCCNC(=N)N)CCOc1ccc2cc(CCCCNC(=N)NC(=O)c3nc(Cl)c(N)nc3N)ccc2c1 [Compound 116, (2R,2′R)—N,N′-(3,3′-(2-(6-(4-(3-(3,5-diamino-6-chloropyrazine-2-carbonyl)guanidino)butyl)naphthalen-2-yloxy)ethylazanediyl)bis(propane-3,1-diyl))bis(2-amino-6-guanidinohexanamide)]
6 h Ocular Hydration (AUC0-6) [3]: 40.9

Compound: N=C(NCCCCc1ccc(OCCN(CCCNC(=O)[C@@H](N)CCCCNC(=O)[C@@H](N)CCCCN)CCCNC(=O)[C@@H](N)CCCCNC(=O)[C@@H](N)CCCCN)cc1)NC(=O)c1nc(Cl)c(N)nc1N [Compound 59, (S,2S,2′S)—N,N′-(3,3′-(2-(4-(4-(3-(3,5-diamino-6-chloropyrazine-2-carbonyl)guanidino)butyl)phenoxy)ethylazanediyl)bis(propane-3,1-diyl))bis(2-amino-6-((S)-2,6-diaminohexanamido)hexanamide)]
6 h Ocular Hydration (AUC0-6) [3]: 39.7

Compound: N=C(N)NCCCC[C@H](N)C(=O)NCCCN(CCCNC(=O)[C@@H](N)CCCCNC(=N)N)CCCN(CCCN(CCCNC(=O)[C@@H](N)CCCCNC(=N)N)CCCNC(=O)[C@@H](N)CCCCNC(=N)N)CCOc1ccc(CCCCNC(=N)NC(=O)c2nc(Cl)c(N)nc2N)cc1 [Compound 82, (2S,2′S,2″S,2′″S)—N,N′,N″,N′″-(3,3′,3″,3′″-(3,3′-(2-(4-(4-(3-(3,5-diamino-6-chloropyrazine-2-carbonyl)guanidino)butyl)phenoxy)ethylazanediyl)bis(propane-3,1-diyl))bis(azanetriyl)tetrakis(propane-3,1-diyl))tetrakis(2-amino-6-guanidinohexanamide)]
6 h Ocular Hydration (AUC0-6) [3]: 49.8

Compound: CC(=O)N[C@@H](CS)C(=O)O [NAC, N-acetyl cysteine]
Concentration required to fully reduce Muc5B [7]: 200 mM

Hepatocyte Stability (amount of parent compound remaining) [5]: 94%
Hepatocyte Stability (amount of parent compound remaining) [6]: 100%
Stability towards metabolic hydrolysis in plasma and hepatocytes [8]: stable towards metabolic hydrolysis
Plasma Stability (amount of parent compound remaining) [9]: 87%
Plasma Stability (amount of parent compound remaining) [10]: 89%
Plasma Stability (amount of parent compound remaining) [11]: 103%
Plasma Stability (amount of parent compound remaining) [12]: 101%
Compound: N=C(N)NCCCC[C@@H](N)C(=O)NCCCN(CCCNC(=O)[C@H](N)CCCCNC(=N)N)CCOc1ccc(CCCCNC(=N)NC(=O)c2nc(Cl)c(N)nc2N)cc1 [Compound 9, (2R,2′R)—N,N′-(3,3′-(2-(4-(4-(3-(3,5-diamino-6-chloropyrazine-2-carbonyl)guanidino)butyl)phenoxy)ethylazanediyl)bis(propane-3,1-diyl))bis(2-amino-6-guanidinohexanamide)]
6 h Ocular Hydration (AUC0-6) [3]: 50.2
Penetration of the cornea (confocal x-z image, FIG. 16) [4]: remains associated with the apical (epithelial) surface

Compound: N=C(N)NCCCC[C@H](N)C(=O)NCCCC[C@H](N)C(=O)NCCCC[C@H](N)C(=O)NCCCN(CCCNC(=O)[C@@H](N)CCCCNC(=O)[C@@H](N)CCCCNC(=O)[C@@H](N)CCCCNC(=N)N)CCOc1ccc(CCCCNC(=N)NC(=O)c2nc(Cl)c(N)nc2N)cc1 [Compound 102, (S,S,2S,2′S)—N,N′-(3,3′-(2-(4-(4-(3-(3,5-diamino-6-chloropyrazine-2-carbonyl)guanidino)butyl)phenoxy)ethylazanediyl)bis(propane-3,1-diyl))bis(2-amino-6-((S)-2-amino-6-((S)-2-amino-6-guanidinohexanamido)hexanamido)hexanamide)]
6 h Ocular Hydration (AUC0-6) [3]: 43.2

Hepatocyte Stability (amount of parent compound remaining) [5]: 19%
Hepatocyte Stability (amount of parent compound remaining) [6]: 14%
Stability towards metabolic hydrolysis in plasma and hepatocytes [8]: rapidly metabolized
Plasma Stability (amount of parent compound remaining) [9]: 10%
Plasma Stability (amount of parent compound remaining) [10]: 8.7%
Plasma Stability (amount of parent compound remaining) [11]: 18%
Plasma Stability (amount of parent compound remaining) [12]: 7.6%
Compound: N=C(N)NCCCC[C@H](N)C(=O)NCCCN(CCCNC(=O)[C@@H](N)CCCCNC(=N)N)CCOc1ccc(CCCCNC(=N)NC(=O)c2nc(Cl)c(N)nc2N)cc1 [Compound 15, (2S,2′S)—N,N′-(3,3′-(2-(4-(4-(3-(3,5-diamino-6-chloropyrazine-2-carbonyl)guanidino)butyl)phenoxy)ethylazanediyl)bis(propane-3,1-diyl))bis(2-amino-6-guanidinohexanamide)]
6 h Ocular Hydration (AUC0-6) [3]: 50.2

Reference: patent US10526292B2 (Parion Sciences, Inc., priority 2012, dated 2020)
